Measurements as given in US20090239918A1, “SELECTIVE SUBTYPE ALPHA 2 ADRENERGIC AGENTS AND METHODS FOR USE THEREOF” (ALLERGAN, INC., priority 2008, published 2009).

Tests used:
Alpha 2B receptor = target: T1, Alpha 2B receptor (Homo sapiens, UniProt P18089); assay: RSAT (Receptor Selection and Amplification Technology) assay, alpha 2B; format: cell-based; settings: for EC50: NIH-3T3 cells cotransfected with receptor and Gq/i5, na = not active; for RSAT (rel eff) Alpha 2B, intrinsic activity: ratio of maximal effect of the drug to maximal effect of standard full agonist brimonidine
T1 construct: expressed in transfected cells; host or cells: NIH-3T3
T1 sequence (P18089 1-450): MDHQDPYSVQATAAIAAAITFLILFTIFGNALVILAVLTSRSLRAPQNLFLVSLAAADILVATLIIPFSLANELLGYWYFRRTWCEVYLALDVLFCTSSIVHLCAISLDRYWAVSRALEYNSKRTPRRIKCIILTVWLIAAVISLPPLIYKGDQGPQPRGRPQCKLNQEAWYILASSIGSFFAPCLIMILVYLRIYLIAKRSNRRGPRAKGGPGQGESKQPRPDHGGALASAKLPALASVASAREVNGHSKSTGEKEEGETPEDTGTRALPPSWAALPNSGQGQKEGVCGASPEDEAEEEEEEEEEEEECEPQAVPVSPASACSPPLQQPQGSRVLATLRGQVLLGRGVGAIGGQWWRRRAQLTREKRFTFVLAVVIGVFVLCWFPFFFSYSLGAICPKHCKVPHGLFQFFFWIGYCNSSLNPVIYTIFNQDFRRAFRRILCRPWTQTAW
Experimental: (§1) 76, pp. 308-311 (incorporated herein by reference) and is also described below.
(§2) The RSAT assay measures a receptor-mediated loss of contact inhibition that results in selective proliferation of receptor-containing cells in a mixed population of confluent cells. The increase in cell number is assessed with an appropriate transfected marker gene such as β-galactosidase, the activity of which can be easily measured in a 96-well format. Receptors that activate the G protein, Gq, elicit this response. Alpha 2 receptors, which normally couple to Gi, activate the RSAT response when coexpressed with a hybrid Gq protein that has a Gi receptor recognition domain, called Gq/i5.
(§3) NIH-3T3 cells are plated at a density of 2×10^6 cells in 15 cm dishes and maintained in Dulbecco's modified Eagle's medium supplemented with 10% calf serum. One day later, cells are cotransfected by calcium phosphate precipitation with mammalian expression plasmids encoding p-SV-β-galactosidase (5-10 μg), receptor (1-2 μg) and G protein (1-2 μg). 40 μg salmon sperm DNA may also be included in the transfection mixture. Fresh media is added on the following day and 1-2 days later, cells are harvested and frozen in 50 assay aliquots. Cells are thawed and 100 μl added to 100 μL aliquots of various concentrations of drugs in triplicate in 96-well dishes. Incubations continue 72-96 hr at 37° C. After washing with phosphate-buffered saline, β-galactosidase enzyme activity is determined by adding 200 μL of the chromogenic substrate (consisting of 3.5 mM o-nitrophenyl-β-D-galactopyranoside and 0.5% nonidet P-40 in phosphate buffered saline), incubating overnight at 30° C. and measuring optical density at 420 nm. The absorbance is a measure of enzyme activity, which depends on cell number and reflects a receptor-mediated cell proliferation. The efficacy or intrinsic activity is calculated as a ratio of the maximal effect of the drug to the maximal effect of a standard full agonist for each receptor subtype. Brimonidine, the chemical structure of which is shown below, is used as the standard agonist for the alpha 2B and alpha 2C receptors.

Alpha 2C receptor = target: T2, Alpha 2C receptor (Homo sapiens, UniProt P18825); assay: RSAT (Receptor Selection and Amplification Technology) assay, alpha 2C; format: cell-based; settings: for EC50: NIH-3T3 cells cotransfected with receptor and Gq/i5, na = not active; for RSAT (rel eff) Alpha 2C, intrinsic activity: ratio of maximal effect of the drug to maximal effect of standard full agonist brimonidine
T2 construct: expressed in transfected cells; host or cells: NIH-3T3
T2 sequence (P18825 1-462): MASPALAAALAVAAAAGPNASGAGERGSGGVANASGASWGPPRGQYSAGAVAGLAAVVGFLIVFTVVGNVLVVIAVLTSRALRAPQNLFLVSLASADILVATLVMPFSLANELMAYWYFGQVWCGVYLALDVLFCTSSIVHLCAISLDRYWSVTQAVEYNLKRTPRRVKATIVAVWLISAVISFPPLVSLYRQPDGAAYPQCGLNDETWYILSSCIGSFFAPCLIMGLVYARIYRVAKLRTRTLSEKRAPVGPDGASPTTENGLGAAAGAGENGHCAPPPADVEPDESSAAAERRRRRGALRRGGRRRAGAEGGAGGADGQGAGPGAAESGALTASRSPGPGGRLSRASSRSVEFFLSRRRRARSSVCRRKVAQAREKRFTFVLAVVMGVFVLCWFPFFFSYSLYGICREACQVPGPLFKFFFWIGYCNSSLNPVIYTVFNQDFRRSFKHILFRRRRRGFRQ
Experimental: as §1, §2, §3

| SMILES | EC50 (Alpha 2B receptor) [nM] | RSAT (rel eff) Alpha 2B, intrinsic activity (Alpha 2B receptor) | EC50 (Alpha 2C receptor) [nM] | RSAT (rel eff) Alpha 2C, intrinsic activity (Alpha 2C receptor) |
| --- | --- | --- | --- | --- |
| Clc1ccc(CC(N=C2NCCN2)c2cccc(Cl)c2Cl)c(Cl)c1 (centres unmarked) | 2.79 | 1.17 | – | – |
| c1ccc(CC(/N=C2/NCCS2)c2ccccc2)cc1 (centres unmarked) | 5.43 | 0.90 | 9.63 | 0.42 |
| Cc1cccc(CC(N=C2NCCN2)c2cccc(Cl)c2)c1 (centres unmarked) | 1.52 | 0.81 | 3.7 | 0.38 |
| COc1cccc(CC(N=C2NCCN2)c2cccc(Cl)c2Cl)c1 (centres unmarked) | 1.91 | 1.00 | – | – |
| Cc1ccc(CC(/N=C2\NCCO2)c2cccc(Cl)c2)cc1 (centres unmarked) | 5.11 | 0.74 | 6.78 | 0.46 |
| Cc1ccccc1CC(N=C1NCCN1)c1cccc(Cl)c1 (centres unmarked) | 1.92 | 0.87 | – | – |
| Cc1c(Cl)cccc1C(Cc1ccccc1)N=C1NCCN1 (centres unmarked) | 7.64 | 0.77 | – | – |
| COc1ccccc1CC(NC1=NCCN1)c1cccc(Cl)c1 (centres unmarked) | 0.61 | 0.89 | – | – |
| Cc1ccccc1CC(/N=C1\NCCO1)c1cccc(Cl)c1 (centres unmarked) | 1.52 | 0.87 | 1.46 | 0.39 |
| Cc1ccc(CC(/N=C2/NCCS2)c2cccc(Cl)c2)cc1 (centres unmarked) | 7.32 | 0.76 | 11.8 | 0.45 |
| Fc1c(Cl)cccc1C(Cc1ccccc1)/N=C1/NCCS1 (centres unmarked) | 4.54 | 0.89 | 6.48 | 0.38 |
| Fc1cccc(Cl)c1CC(N=C1NCCN1)c1cccc(Cl)c1Cl (centres unmarked) | 12.5 | 0.89 | – | – |
| Cc1ccc(CC(N=C2NCCN2)c2cccc(Cl)c2)cc1 (centres unmarked) | 5.61 | 0.69 | – | – |
| Clc1cccc(C(Cc2ccccc2)/N=C2/NCCS2)c1 (centres unmarked) | 6.49 | 0.89 | 4.71 | 0.33 |
| Cc1cccc(CC(/N=C2\NCCO2)c2cccc(Cl)c2)c1 (centres unmarked) | 2.79 | 0.92 | 8.56 | 0.63 |
| c1ccc(CC(/N=C2\NCCO2)c2ccccc2)cc1 (centres unmarked) | 3.69 | 0.95 | 3.36 | 0.45 |
| COc1ccccc1CC(NC1=NCCO1)c1cccc(Cl)c1 (centres unmarked) | 0.63 | 0.91 | – | – |
| Clc1cccc(C(Cc2ccccc2Br)NC2=NCCO2)c1 (centres unmarked) | 0.86 | 0.92 | – | – |

| SMILES | EC50 (Alpha 2B receptor) [nM] | RSAT (rel eff) Alpha 2B, intrinsic activity (Alpha 2B receptor) | EC50 (Alpha 2C receptor) [nM] | RSAT (rel eff) Alpha 2C, intrinsic activity (Alpha 2C receptor) |
| --- | --- | --- | --- | --- |
| Cc1ccccc1CC(/N=C1/NCCS1)c1cccc(Cl)c1 (centres unmarked) | 3.29 | 0.89 | 8.34 | 0.46 |
| Clc1ccc(Cl)c(CC(N=C2NCCN2)c2cccc(Cl)c2Cl)c1 (centres unmarked) | 1.02 | 0.98 | 3.92 | 0.39 |
| Cc1cccc(C(Cc2ccccc2)N=C2NCCN2)c1C (centres unmarked) | 2.54 | 0.83 | – | – |
| Cc1c(F)cccc1CC(N=C1NCCN1)c1cccc(Cl)c1Cl (centres unmarked) | 8.04 | 0.95 | 3.54 | 0.31 |
| Clc1cccc(C(Cc2ccccc2Br)N=C2NCCN2)c1Cl (centres unmarked) | 3.24 | 0.89 | – | – |
| Clc1cccc(C(Cc2ccccc2)/N=C2\NCCO2)c1 (centres unmarked) | 7.14 | 0.83 | 4.39 | 0.37 |
| Cc1cccc(C(Cc2ccccc2)/N=C2/NCCS2)c1C (centres unmarked) | 3.69 | 0.89 | 9.48 | 0.45 |
| Clc1ccc(CC(NC2=NCCN2)c2cccc(Cl)c2Cl)cc1Cl (centres unmarked) | 10.8 | 0.96 | – | – |
| Fc1ccc(CC(N=C2NCCN2)c2cccc(Cl)c2Cl)cc1 (centres unmarked) | 3.73 | 0.89 | – | – |
| c1ccc(CC(N=C2NCCN2)c2ccccc2)cc1 (centres unmarked) | 6.38 | 0.77 | – | – |
| Cc1cccc(CC(/N=C2/NCCS2)c2cccc(Cl)c2)c1 (centres unmarked) | 2.96 | 0.82 | 4.33 | 0.44 |
| Clc1cccc(C(Cc2ccccc2)N=C2NCCN2)c1 (centres unmarked) | 5.91 | 0.76 | – | – |
| Cc1cccc(C(Cc2ccccc2)/N=C2\NCCO2)c1C (centres unmarked) | 3.48 | 0.89 | 13.4 | 0.39 |
| Clc1cccc(C(Cc2ccccc2)N=C2NCCN2)c1Cl (centres unmarked) | 3.09 | 0.89 | – | – |
| Fc1c(Cl)cccc1C(Cc1ccccc1)N=C1NCCN1 (centres unmarked) | 3.57 | 0.85 | 1.97 | 0.39 |
| Fc1c(Cl)cccc1C(Cc1ccccc1)/N=C1\NCCO1 (centres unmarked) | 2.79 | 0.93 | 2.57 | 0.32 |
| Oc1cccc(CC(NC2=NCCN2)c2cccc(Cl)c2Cl)c1 (centres unmarked) | 1.55 | 1.05 | – | – |
| Clc1cc(Cl)cc(CC(N=C2NCCN2)c2cccc(Cl)c2Cl)c1 (centres unmarked) | 0.9 | 1.20 | 5.74 | 0.42 |
